In US20260191807A1, “COMPOSITIONS AND METHODS FOR TREATMENT OF PRADER-WILLI SYNDROME” (ERX Pharmaceuticals Inc., priority 2022, published 2026):
“And” between values parts separate entries of the source, which are not always exact repeats. Identical values can stand only once.

What was measured:
Format in all cases: in vivo
C57BL/6 DIO mice [1] = test: Body weights of C57BL/6 DIO mice during daily treatment; conditions: Celastrol 0.2 mg/kg IP daily; for Body weights (expressed as a percentage of day-1 weight) / Body weights (in grams): Belaronib 0.3 mg/kg SC, mean
Magel2 mice = test: Deaths and clinical signs, Magel2 study; conditions: 0.2 mg/kg IP for 21 days
Protocol: (§1) In the study disclosed herein, celastrol at was administered intraperitoneally using a 30G needle at a dose of 0.2 mg/kg to five female Magel2 homozygous mice (−/−) and four male mice heterozygous for Magel2 (−/+). In addition, vehicle was administered to four male mice heterozygous for Magel2 (−/+) for 21 days.

C57BL/6-Magel2 mice = test: Nestlet shredding test in C57BL/6 Magel2 mice; conditions: 0.2 mg/kg IP QD, mean
Protocol: The nestlet shredding behavioral effects of celastrol was evaluated in Magel2 knockout mice. Magel2 knockout has been used as a model of Prader-Willi syndrome to assess potential pharmacological treatments effect on behavior (Meziane 2015). Without wishing to be bound by theory, the Magel2 gene is a major causative gene of phenotypes in both Prader-Willi syndrome and autism (Schraff 2013). Further, nestlet shredding has been used to assess anxiety and compulsive behaviors in mouse models (Angoa-Perez 2013 and Dorniger 2020) and has been used to characterize clinically effective treatments for Prader-Willi syndrome (Fagen 2018 and McCandless 2017).
as §1
C57BL/6-Magel2 mice were bred for purpose from cryo recovery by Jackson Labs (Bar Harbor, ME) and arrived at the testing facility at age 8 weeks.
All treatment volumes were 10 mL/kg. Utilizing the art-recognized nestlet shredding mouse model, the dose was administered by gavage (as capsule dosing is challenging in mice). Celastrol and the vehicle control were administered intraperitoneally using a 30G needle. All treatments were administered daily in the afternoon at 17:00 h, 1 hour before dark cycle from Day 1 to end of dosing.
Celastrol was dissolved in 50% Solutol/50% DMAC. The resulting stock solution aliquoted and stored at −80° C. until treatment day. On the day of treatment an aliquot of the stock solution was thawed and diluted 1:20 with saline to obtain the desired dosing solution strength in 5%
The nestlet shredding test is an art-recognized animal model for human repetitive, anxiety, and/or compulsive behaviors. In the nestlet shredding test, a nestlet comprised of pulped fiber, e.g., cotton fiber, is preweighed and placed on top of cage bedding and the amount of the nestlet remaining intact after a test session of pre-determined time is evaluated.
Nestlet shredding was determined on day 1, day 11, and day 21 by placing a fresh nestlet prior to the dark cycle and measuring the weight of the remaining nestlet at 12 and 24 hours on an Ohaus model CS 200 balance. Percent shredding was calculated based on the initial nestlet weight.

C57BL/6 DIO mice [2] = test: Daily food intake of C57BL/6 DIO mice; conditions: for Food intake (food weights in g/day): Belaronib 0.3 mg/kg SC, Celastrol 0.2 mg/kg IP daily, mean
Protocol: C57BL/6 mice were treated with test compound (Celastrol) or controls as shown in the table below from Day 1 to Day 15. […] One mouse was excluded from the study because it appeared resistant to nestlet shredding prior to treatment.
Male C57BL/6 DIO mice were obtained from Jackson Labs (Bar Harbor, ME). The mice arrived at ages 17 weeks and mice were housed 3 per cage on arrival. Prior to dosing in the study, the mice were singly housed.
All treatment volumes were 10 mL/kg. Utilizing the art-recognized nestlet shredding mouse model, […]. Celastrol and the vehicle control were administered intraperitoneally using a 30G needle. Beloranib was administered subcutaneously using a 30G needle. All treatments were administered daily in the afternoon at 17:00 h, 1 hour before dark cycle from Day 1 to end of dosing.
Celastrol was dissolved in a pharmaceutically-acceptable excipient, e.g., 50% Solutol/50% DMAC, and this stock solution aliquoted and stored at −80° C. until treatment day. On the day of treatment, an aliquot of the stock solution was thawed and diluted […] with saline to obtain the desired dosing solution strength in 5% Solutol/5% dimethylacetamide/90% saline. The vehicle control was 5% Solutol/5% dimethylacetamide/90% saline. Beloranib was dissolved in 100% DMSO, and this stock solution was aliquoted and stored at −80° C. until treatment day. On the day of treatment, an aliquot of the stock solution was thawed and diluted 1:10 with deionized (DI) water to obtain the desired dosing solution strength in 10% DMSO.
Daily food intake was calculated based on remaining food weight compared to food weight on the previous day using an Ohaus model CS 200 balance.

## CC1=C(O)C(=O)C=C2C1=CC=C1[C@@]2(C)CC[C@@]2(C)[C@@H]3C[C@](C)(C(=O)O)CC[C@]3(C)CC[C@]12C [Celastrol]
C57BL/6 DIO mice [1]; Day 1
  Body weights (expressed as a percentage of day-1 weight): 100.0%
  Body weights (in grams): 44.8 grams and 45.4 grams
C57BL/6 DIO mice [1]; Day 2
  Body weights (expressed as a percentage of day-1 weight): 98.6%
  Body weights (in grams): 44.8 grams
C57BL/6 DIO mice [1]; Day 3
  Body weights (expressed as a percentage of day-1 weight): 95.8%
  Body weights (in grams): 43.5 grams
C57BL/6 DIO mice [1]; Day 4
  Body weights (expressed as a percentage of day-1 weight): 92.8%
  Body weights (in grams): 42.2 grams
C57BL/6 DIO mice [1]; Day 5
  Body weights (expressed as a percentage of day-1 weight): 89.6%
  Body weights (in grams): 40.7 grams
C57BL/6 DIO mice [1]; Day 6
  Body weights (expressed as a percentage of day-1 weight): 86.2%
  Body weights (in grams): 39.2 grams
C57BL/6 DIO mice [1]; Day 7
  Body weights (expressed as a percentage of day-1 weight): 83.8%
  Body weights (in grams): 38.1 grams
C57BL/6 DIO mice [1]; Day 8
  Body weights (expressed as a percentage of day-1 weight): 81.3%
  Body weights (in grams): 37.0 grams
C57BL/6 DIO mice [1]; Day 9
  Body weights (expressed as a percentage of day-1 weight): 79.2%
  Body weights (in grams): 36.0 grams
C57BL/6 DIO mice [1]; Day 10
  Body weights (expressed as a percentage of day-1 weight): 76.5%
  Body weights (in grams): 34.8 grams
C57BL/6 DIO mice [1]; Day 11
  Body weights (expressed as a percentage of day-1 weight): 73.9%
  Body weights (in grams): 33.6 grams
C57BL/6 DIO mice [1]; Day 12
  Body weights (expressed as a percentage of day-1 weight): 72.2%
  Body weights (in grams): 32.8 grams
C57BL/6 DIO mice [1]; Day 13
  Body weights (expressed as a percentage of day-1 weight): 71.1%
  Body weights (in grams): 32.3 grams
C57BL/6 DIO mice [1]; Day 14
  Body weights (expressed as a percentage of day-1 weight): 70.1%
  Body weights (in grams): 31.9 grams
C57BL/6 DIO mice [1]; Day 15
  Body weights (expressed as a percentage of day-1 weight): 69.2%
  Body weights (in grams): 31.4 grams
C57BL/6 DIO mice [1]; at day 15, Beloranib 0.3 mg/kg SC, vehicle-treated mice lost 15.5%
  body weight lost (percentage of day 1 body weight): 30.8%
Magel2 mice
  deaths or abnormal clinical signs: No deaths or abnormal clinical signs
C57BL/6-Magel2 mice; Day 1, 12 hour, Magel2 (−/+) heterozygous male mice
  Nestlet Shredding (percent of nestlet shredded): 100.0%
C57BL/6-Magel2 mice; Day 1, 12 hour, Magel2 (−/−) homozygous female mice
  Nestlet Shredding (percent of nestlet shredded): 100.0%
C57BL/6-Magel2 mice; Day 11, 12 hour, Magel2 (−/+) heterozygous male mice
  Nestlet Shredding (percent of nestlet shredded): 100.0%
C57BL/6-Magel2 mice; Day 11, 12 hour, Magel2 (−/−) homozygous female mice
  Nestlet Shredding (percent of nestlet shredded): 54.7%
C57BL/6-Magel2 mice; Day 11, 24 hour, Magel2 (−/+) heterozygous male mice
  Nestlet Shredding (percent of nestlet shredded): 100.0%
C57BL/6-Magel2 mice; Day 11, 24 hour, Magel2 (−/−) homozygous female mice
  Nestlet Shredding (percent of nestlet shredded): 93.5%
C57BL/6-Magel2 mice; Day 21, 12 hour, Magel2 (−/+) heterozygous male mice
  Nestlet Shredding (percent of nestlet shredded): 38.3%
C57BL/6-Magel2 mice; Day 21, 12 hour, Magel2 (−/−) homozygous female mice
  Nestlet Shredding (percent of nestlet shredded): 54.7%
C57BL/6-Magel2 mice; Day 21, 24 hour, Magel2 (−/+) heterozygous male mice
  Nestlet Shredding (percent of nestlet shredded): 44.6%
C57BL/6-Magel2 mice; Day 21, 24 hour, Magel2 (−/−) homozygous female mice
  Nestlet Shredding (percent of nestlet shredded): 62.3%
C57BL/6 DIO mice [2]; 15-day study, Beloranib 0.3 mg/kg SC, celastrol 0.2 mg/kg IP daily, vehicle 32.6 g
  cumulative food intake, average total for the study: 17.4 g/mouse
C57BL/6 DIO mice [2]; Celastrol compared with positive control Beloranib
  effect on food intake (in words): more potent and sustained effect on food intake
C57BL/6 DIO mice [2]; Day 1
  Food intake (food weights in g/day): 2.7 g/day
C57BL/6 DIO mice [2]; Day 2
  Food intake (food weights in g/day): 1.2 g/day
C57BL/6 DIO mice [2]; Day 3
  Food intake (food weights in g/day): 1.1 g/day
C57BL/6 DIO mice [2]; Day 4
  Food intake (food weights in g/day): 0.9 g/day
C57BL/6 DIO mice [2]; Day 5
  Food intake (food weights in g/day): 0.7 g/day
C57BL/6 DIO mice [2]; Day 6
  Food intake (food weights in g/day): 0.9 g/day
C57BL/6 DIO mice [2]; Day 7
  Food intake (food weights in g/day): 1.1 g/day
C57BL/6 DIO mice [2]; Day 8
  Food intake (food weights in g/day): 1.2 g/day
C57BL/6 DIO mice [2]; Day 9
  Food intake (food weights in g/day): 0.7 g/day
C57BL/6 DIO mice [2]; Day 10
  Food intake (food weights in g/day): 0.9 g/day
C57BL/6 DIO mice [2]; Day 11
  Food intake (food weights in g/day): 1.1 g/day
C57BL/6 DIO mice [2]; Day 12
  Food intake (food weights in g/day): 1.3 g/day
C57BL/6 DIO mice [2]; Day 13
  Food intake (food weights in g/day): 1.4 g/day
C57BL/6 DIO mice [2]; Day 14
  Food intake (food weights in g/day): 1.2 g/day
C57BL/6 DIO mice [2]; Day 15
  Food intake (food weights in g/day): 1.0 g/day
C57BL/6 DIO mice [2]; from day 2 throughout the 15-day study, 0.2 mg/kg IP daily, vehicle around 2.2
  food intake, average: 1.0 g/day/mouse
